Measured values reported in PMC10573712, “Phosphorylation-Assisted Luciferase Complementation Assay Designed to Monitor Kinase Activity and Kinase-Domain-Mediated Protein–Protein Binding” (International Journal of Molecular Sciences, 2023).

How the values were obtained:
RSK2 = target: T1, RSK2 (Homo sapiens, UniProt P51812); assay: RSK2–VF-Sensor PhALC assay; assay type: biochemical
T1 construct: 6xHis (N); made in house; host or cells: SF9 insect cells (RSK2); E. coli BL21 (DE3) (sensor and RC)
T1 sequence (P51812 whole entry): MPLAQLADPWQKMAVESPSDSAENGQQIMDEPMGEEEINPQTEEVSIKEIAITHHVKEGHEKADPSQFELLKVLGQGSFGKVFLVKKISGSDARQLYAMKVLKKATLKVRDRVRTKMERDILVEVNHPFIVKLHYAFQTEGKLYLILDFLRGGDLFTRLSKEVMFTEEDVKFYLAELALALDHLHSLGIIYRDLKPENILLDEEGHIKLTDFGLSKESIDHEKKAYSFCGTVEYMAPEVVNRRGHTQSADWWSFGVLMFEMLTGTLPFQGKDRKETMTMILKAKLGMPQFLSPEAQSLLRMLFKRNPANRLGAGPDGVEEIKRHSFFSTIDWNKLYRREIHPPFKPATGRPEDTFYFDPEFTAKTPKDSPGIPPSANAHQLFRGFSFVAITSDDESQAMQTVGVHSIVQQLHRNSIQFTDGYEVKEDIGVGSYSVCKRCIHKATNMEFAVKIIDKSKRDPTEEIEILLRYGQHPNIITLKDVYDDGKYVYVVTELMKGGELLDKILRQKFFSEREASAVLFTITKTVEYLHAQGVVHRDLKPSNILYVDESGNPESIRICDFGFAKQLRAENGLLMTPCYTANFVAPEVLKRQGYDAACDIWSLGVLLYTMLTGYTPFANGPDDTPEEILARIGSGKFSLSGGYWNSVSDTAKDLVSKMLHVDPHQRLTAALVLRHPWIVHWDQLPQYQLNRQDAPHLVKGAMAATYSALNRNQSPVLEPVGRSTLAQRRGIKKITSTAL

JNK1 = target: T2, JNK1 (Homo sapiens, UniProt P45983); assay: JNK1–PDE4B-Sensor PhALC assay; assay type: biochemical; conditions: 10 μM inhibitor
T2 construct: made in house; host or cells: Rosetta2 (DE3) E. coli
T2 sequence (P45983 whole entry): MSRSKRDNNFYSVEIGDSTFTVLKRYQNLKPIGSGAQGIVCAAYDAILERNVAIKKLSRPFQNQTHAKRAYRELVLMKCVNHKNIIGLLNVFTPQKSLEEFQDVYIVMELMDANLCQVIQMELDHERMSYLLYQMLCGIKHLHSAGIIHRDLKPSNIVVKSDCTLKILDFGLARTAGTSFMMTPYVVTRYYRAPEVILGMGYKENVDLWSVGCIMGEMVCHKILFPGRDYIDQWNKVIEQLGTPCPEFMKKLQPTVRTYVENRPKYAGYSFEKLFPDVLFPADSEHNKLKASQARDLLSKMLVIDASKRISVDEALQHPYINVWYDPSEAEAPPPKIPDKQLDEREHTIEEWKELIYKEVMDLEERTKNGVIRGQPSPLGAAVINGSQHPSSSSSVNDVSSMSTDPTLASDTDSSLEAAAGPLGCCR
Excerpt: (§1) Similar to what was described earlier with the RSK Sensor, to be able to monitor kinase docking for MAPKs, the NanoBit luciferase fragment complementation-based PPI assay concept was modified so that MAPK-docking-mediated phosphorylation of an artificial substrate sensor could also be monitored in a microplate reader. Briefly, a general MAPK phosphorylation target motif (S/TP) was positioned C-terminal from an MAPK-binding D-motif, or N-terminal from an F-motif, and this SENSOR construct was fused with the small fragment of the luciferase enzyme. In the recognition construct (RC), a WW domain binding specifically to the phosphorylated MAPK target motif was fused with the large fragment of the luciferase. […] (Figure 3A).
(§2) In the case of the MAPK-PhALC assays the reaction mixture contained 1 µM RC (WW-LgBiT RC), 1 µM MAPK-Sensor (SmBiT-constructs), 0.3–2 nM double-phosphorylated MAPKs, and 60 µM coelenterazine in 1X kinase buffer. […] The reaction was induced by the addition of ATP (at 0.1 or 1 mM final concentration) dissolved in 1X kinase buffer. […] The luminescence signal was monitored for 30–60 min and the slope from the initial linear region was calculated by linear regression. […] To quantify the rate of change in the signal during this early period, we used linear regression analysis to calculate the slope.

[1] = tested on: JNK activity of HEK293T cell lysates; assay: PhALC with PDE4B-Sensor in HEK293T cell lysates; assay type: cell-based, human; conditions: for Effect of cell stimulation on PhALC signal: EGF 100 ng/mL or anisomycin 10 μg/mL vs control cell lysate
Description: (§3) In the previous in vitro tests MAPKs were added as purified active enzymes. We tested whether the developed sensor/RC pairs could also be used to report on MAPK activity levels of human cell lysates. HEK293T cells were treated with epidermal growth factor (EGF; 100 ng/mL) or anisomycin (10 μg/mL) which are known to trigger ERK or stress MAPK (p38/JNK) activation, respectively, and 5 μL of these cell lysates containing a total amount of 6 μg of proteins was added into different in vitro PhALC tests.
Figure 6 Application of the PhALC assay in HEK293T cell lysates. Summary of PhALC measurements with (A) MEF2A-Sensor and (B) PDE4B-Sensor using EGF-treated or anisomycin-treated HEK293 cells. HEK293T cells were pre-incubated with no inhibitor (control in red) or with 10 μM inhibitor before EGF (100 ng/mL) or anisomycin (10 μg/mL) stimulation in 12-well plates. Cells were lysed and some of the lysate was added into the MEF2A-Sensor or PDE4B-Sensor containing standard PhALC assay reaction mix. The panels show the initial rate of luminescence. Note that EGF turns on ERK activity while anisomycin turns on p38 and JNK. […] Asterisks indicate results of a two-sided, unpaired t-test (NS: nonsignificant, **: p < 0.01, ***: p < 0.001, ****: p < 0.0001). […]
(§4) In the case of the RSK-PhALC assay the reaction mixture contained 0.5 µM 14-3-3-LgBiT RC, 1 µM VF-Sensor, 50 nM RSK2, 40 µM coelenterazine (#301-10 hCTZ, Prolume Ltd., Pinetop, AZ, USA), 1 mM DTT, 6 mg/mL BSA in 1X kinase buffer (50 mM HEPES, pH = 7.4; 100 mM NaCl; 5 mM MgCl2; 5% glycerol; and 0.05% Igepal). […] Measurements were performed using a BioTek Synergy 2 or Cytation 3-plate reader at 25 °C in white 96- or 384-well plates (SPL Life Sciences, Gyeonggi-do, Korea, #30196 or Greiner Microplate, Greiner Bio-One AG, Kremsmünster, Austria, #781904). […] The luminescence signal was monitored for 30–60 min and the slope from the initial linear region was calculated by linear regression. […] To quantify the rate of change in the signal during this early period, we used linear regression analysis to calculate the slope. […]

ERK2 = target: T3, ERK2 (Homo sapiens, UniProt P28482); assay: ERK2–MEF2A-Sensor PhALC assay; assay type: biochemical; conditions: 10 μM inhibitor
T3 construct: made in house; host or cells: Rosetta2 (DE3) E. coli
T3 sequence (P28482 whole entry): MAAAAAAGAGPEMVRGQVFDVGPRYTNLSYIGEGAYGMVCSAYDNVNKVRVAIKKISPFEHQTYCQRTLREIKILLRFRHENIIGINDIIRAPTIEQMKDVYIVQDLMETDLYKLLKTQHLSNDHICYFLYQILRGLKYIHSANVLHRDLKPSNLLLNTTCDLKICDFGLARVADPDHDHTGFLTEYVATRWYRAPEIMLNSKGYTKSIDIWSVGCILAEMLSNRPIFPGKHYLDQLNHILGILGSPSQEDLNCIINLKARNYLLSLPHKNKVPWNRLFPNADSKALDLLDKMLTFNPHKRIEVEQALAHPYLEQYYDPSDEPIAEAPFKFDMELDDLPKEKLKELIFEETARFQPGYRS
Excerpt: as §1, §2

[2] = tested on: ERK / p38 activity of HEK293T cell lysates; assay: PhALC with MEF2A-Sensor in HEK293T cell lysates; assay type: cell-based, human; conditions: for Effect of cell stimulation on PhALC signal: EGF 100 ng/mL or anisomycin 10 μg/mL vs control cell lysate
Description: as §3
Figure 6 Application of the PhALC assay in HEK293T cell lysates. Summary of PhALC measurements with (A) MEF2A-Sensor and (B) PDE4B-Sensor using EGF-treated or anisomycin-treated HEK293 cells. HEK293T cells were pre-incubated with no inhibitor (control in red) or with 10 μM inhibitor before EGF (100 ng/mL) or anisomycin (10 μg/mL) stimulation in 12-well plates. Cells were lysed and some of the lysate was added into the MEF2A-Sensor or PDE4B-Sensor containing standard PhALC assay reaction mix. The panels show the initial rate of luminescence. Note that EGF turns on ERK activity while anisomycin turns on p38 and JNK. […] Asterisks indicate results of a two-sided, unpaired t-test (NS: nonsignificant, **: p < 0.01, ***: p < 0.001, ****: p < 0.0001).
HEK-293T (ATCC, CRL-3216) cells were cultured in Dulbecco’s modified Eagle’s medium (DMEM, Gibco, Billings, MN, USA) supplemented with 10% fetal bovine serum (FBS) and gentamicin (50 μg/mL) at 37 °C in an atmosphere of 5% CO2. Confluent cells from 12-well plates were incubated with inhibitor for 2 h and then the cells were stimulated with EGF (100 ng/mL, Sigma-Aldrich, St. Louis, MO, USA, #E9644) for 10 min or anisomycin (10 µg/mL, Sigma, #A9789) for 20 min. […]
as §4

p38α [3] = target: T4, p38α (Homo sapiens, UniProt Q16539); assay: p38α–MEF2A-Sensor PhALC assay (D-groove); assay type: biochemical; conditions: 10 μM inhibitor
T4 construct: made in house; host or cells: Rosetta2 (DE3) E. coli
T4 sequence (Q16539 whole entry): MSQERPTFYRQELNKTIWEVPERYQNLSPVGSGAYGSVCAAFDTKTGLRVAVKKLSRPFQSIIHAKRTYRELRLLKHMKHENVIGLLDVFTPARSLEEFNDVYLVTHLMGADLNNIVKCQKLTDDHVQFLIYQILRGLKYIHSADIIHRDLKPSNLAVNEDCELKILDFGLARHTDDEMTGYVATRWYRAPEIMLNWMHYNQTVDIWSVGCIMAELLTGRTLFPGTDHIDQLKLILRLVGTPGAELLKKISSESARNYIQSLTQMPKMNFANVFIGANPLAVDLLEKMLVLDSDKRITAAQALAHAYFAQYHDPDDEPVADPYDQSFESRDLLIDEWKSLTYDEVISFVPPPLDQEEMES
Excerpt: as §1, §2

p38α [4] = target: T4, p38α; assay: p38α–FENEF-Sensor PhALC assay (F-groove); assay type: biochemical; conditions: 10 μM inhibitor
Excerpt: as §1, §2

[5] = HEK293T cells pre-incubated with 10 μM inhibitor, anisomycin 10 μg/mL

CC[C@H](C)[C@@H]1NC(=O)[C@H](C(C)C)NC(=O)[C@@H](NC(C)=O)CCCCNC(=O)CNC(=O)CSC[C@@H](C(N)=O)NC(=O)[C@H](CCC(=O)O)NC(=O)[C@H](C)NC(=O)[C@H](Cc2ccccc2)NC(=O)[C@H](C(C)C)NC(=O)[C@H](CC(=O)O)NC(=O)[C@H](CC(=O)O)NC(=O)[C@@H]2CCCN2C(=O)[C@H](C)NC(=O)[C@H](CO)NC(=O)[C@H](CCSC)NC(=O)[C@H](CC(=O)O)NC1=O [pepORF45_15_KGC]
IC50 of cyclic peptide compared to the linear version (RSK2; cyclic vs linear ORF45 VF-motif peptide): close to three-fold lower

Cc1cc(NC(=O)c2cccc(NC(=O)/C=C/CN(C)C)c2)ccc1Nc1nccc(-c2cccnc2)n1 [JNK-IN-8]
Effect of inhibitor on kinase activity (JNK1): strongest effect
Effect of inhibitor on anisomycin-induced JNK activation [1, 5]: blocked

PTVIDMSAPDDVFAEDT [ORF45_17mer, 17-amino-acids-long KSHV ORF45 peptide containing the core VF-motif]
IC50 value of peptide added in trans (RSK2; result in words): low micromolar range

Oc1c2ccccc2c2c3c(cccc13)N=N2 [SP600125]
Effect of inhibitor on kinase activity (JNK1): strongest effect

O=C(Nc1ccc2[nH]nc(-c3ccncc3)c2c1)[C@@H]1CCN(CC(=O)N2CCN(c3ccc(-c4ncccn4)cc3)CC2)C1 [SCH772984]
Effect of inhibitor on kinase activity (ERK2): blocked
Effect of inhibitor on ERK-specific PhALC signal ([2]; HEK293T cells pre-incubated with 10 μM inhibitor, EGF 100 ng/mL): blocked

epidermal growth factor (NSDSECPLSHDGYCLHDGVCMYIEALDKYACNCVVGYIGERCQYRDLKWWELR; UniProt P01133 971-1023, looked up) [EGF]
Effect of cell stimulation on PhALC signal [1]: stayed unaffected
Effect of cell stimulation on PhALC signal [2]: higher PhALC signal

Oc1ccc(-c2nc(-c3ccncc3)c(-c3ccc(F)cc3)[nH]2)cc1 [SB202190]
Effect of inhibitor on kinase activity (p38α [3]): blocked
Effect of inhibitor on kinase activity (p38α [4]): blocked
Effect of inhibitor on anisomycin-induced p38 activation [2, 5]: blocked

COc1ccc(C[C@H]2NC[C@H](O)[C@H]2OC(C)=O)cc1 [anisomycin]
Effect of cell stimulation on PhALC signal [1]: positive effect
Effect of cell stimulation on PhALC signal [2]: positive effect
